# Measurements: paper PMC11460631, “Inhibition of transient receptor potential vanilloid 3 channels by antimalarial hydroxychloroquine alleviates TRPV3-dependent dermatitis” (The Journal of Biological Chemistry, 2024)
# Experiments:
# hTRPA1 = target: T1, hTRPA1 (Homo sapiens, UniProt O75762); test: Whole-cell current recordings, hTRPA1; type: cell-based; conditions: 100 μM HCQ; current activated by 500 μM allyl isothiocyanate
# T1 construct: YFP or GFP; expressed in transfected cells; host or cells: HEK293T
# T1 sequence (O75762 whole entry): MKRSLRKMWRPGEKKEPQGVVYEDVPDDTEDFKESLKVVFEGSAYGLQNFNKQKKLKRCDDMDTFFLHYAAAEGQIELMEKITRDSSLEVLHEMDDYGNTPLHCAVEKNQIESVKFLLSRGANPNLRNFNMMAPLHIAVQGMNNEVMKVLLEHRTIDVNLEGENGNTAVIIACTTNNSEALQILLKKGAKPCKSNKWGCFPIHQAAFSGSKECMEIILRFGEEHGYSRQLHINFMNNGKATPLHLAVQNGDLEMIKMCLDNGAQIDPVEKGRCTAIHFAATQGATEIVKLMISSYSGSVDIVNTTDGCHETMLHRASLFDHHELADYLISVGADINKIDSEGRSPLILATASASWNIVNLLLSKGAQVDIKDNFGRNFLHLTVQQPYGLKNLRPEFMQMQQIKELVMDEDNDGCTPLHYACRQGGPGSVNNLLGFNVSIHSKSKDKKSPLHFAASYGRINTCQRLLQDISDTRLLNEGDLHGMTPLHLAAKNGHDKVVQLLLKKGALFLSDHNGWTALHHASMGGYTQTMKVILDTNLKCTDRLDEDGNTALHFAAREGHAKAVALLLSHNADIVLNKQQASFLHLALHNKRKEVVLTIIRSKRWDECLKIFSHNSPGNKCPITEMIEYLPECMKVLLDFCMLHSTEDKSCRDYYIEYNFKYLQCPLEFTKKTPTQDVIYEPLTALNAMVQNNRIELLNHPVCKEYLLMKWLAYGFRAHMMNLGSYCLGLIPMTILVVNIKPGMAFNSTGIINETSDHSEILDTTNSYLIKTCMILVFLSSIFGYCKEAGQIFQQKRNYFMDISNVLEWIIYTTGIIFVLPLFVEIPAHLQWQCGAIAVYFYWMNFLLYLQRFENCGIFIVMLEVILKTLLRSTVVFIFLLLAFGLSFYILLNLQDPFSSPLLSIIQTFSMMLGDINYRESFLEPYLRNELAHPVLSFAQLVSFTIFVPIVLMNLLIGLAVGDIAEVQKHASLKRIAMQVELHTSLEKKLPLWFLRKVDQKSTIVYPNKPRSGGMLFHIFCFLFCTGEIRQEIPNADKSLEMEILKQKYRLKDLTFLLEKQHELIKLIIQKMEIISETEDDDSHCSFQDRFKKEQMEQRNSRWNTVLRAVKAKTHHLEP
# Protocol: To elucidate the specificity of HCQ inhibition on TRPV3, we conducted whole-cell current recordings on other known pruritus-related TRP channels, such as hTRPA1, mTRPV1, mTRPV4, and mTRPM8 (Fig. 3, A and F). […] Because of the relatively larger inhibition of HCQ on mTRPM8 current, we tested the concentration dependence of HCQ on mTRPM8 channels.
# HEK293T cells are cultured using Dulbecco's modified Eagle's medium containing 10% fetal bovine serum and 1% penicillin-streptomycin in a cell incubator with 5% CO2 at 37 °C. Plasmids of murine TRPV1, TRPV4, TRPM8, and human TRPV3, TRPA1 are labeled with YFP or GFP as indicators for subsequent electrophysiological recordings. Complementary DNA constructs of ion channels were transiently transfected with Lipofectamine 3000 (Invitrogen). And 12 to 18 h after transient transfection, electrophysiological recordings were performed.
# Patch-clamp recordings were carried out with a HEKA EPC10 amplifier controlled by PatchMaster software (HEKA; https://www.heka.com/products/products_main.html#soft_pm) ([36]). Patch pipettes were prepared from borosilicate glass and fire-polished to the resistance of 3 to 8 MΩ by P-97 puller for whole-cell recordings. For single-channel recordings, patch pipettes were fire-polished to a higher resistance of 6 to 10 MΩ. […]
# [1] = target: T2, TRPV3 F633 alanine mutation (Homo sapiens, UniProt Q8NET8, F633A); test: Whole-cell recording of TRPV3 F633 alanine mutant; type: cell-based; conditions: 1 mM 2-APB, ± 80 mV
# T2 construct: YFP or GFP; expressed in transfected cells; host or cells: HEK293T
# T2 sequence (Q8NET8 1-790 F633A): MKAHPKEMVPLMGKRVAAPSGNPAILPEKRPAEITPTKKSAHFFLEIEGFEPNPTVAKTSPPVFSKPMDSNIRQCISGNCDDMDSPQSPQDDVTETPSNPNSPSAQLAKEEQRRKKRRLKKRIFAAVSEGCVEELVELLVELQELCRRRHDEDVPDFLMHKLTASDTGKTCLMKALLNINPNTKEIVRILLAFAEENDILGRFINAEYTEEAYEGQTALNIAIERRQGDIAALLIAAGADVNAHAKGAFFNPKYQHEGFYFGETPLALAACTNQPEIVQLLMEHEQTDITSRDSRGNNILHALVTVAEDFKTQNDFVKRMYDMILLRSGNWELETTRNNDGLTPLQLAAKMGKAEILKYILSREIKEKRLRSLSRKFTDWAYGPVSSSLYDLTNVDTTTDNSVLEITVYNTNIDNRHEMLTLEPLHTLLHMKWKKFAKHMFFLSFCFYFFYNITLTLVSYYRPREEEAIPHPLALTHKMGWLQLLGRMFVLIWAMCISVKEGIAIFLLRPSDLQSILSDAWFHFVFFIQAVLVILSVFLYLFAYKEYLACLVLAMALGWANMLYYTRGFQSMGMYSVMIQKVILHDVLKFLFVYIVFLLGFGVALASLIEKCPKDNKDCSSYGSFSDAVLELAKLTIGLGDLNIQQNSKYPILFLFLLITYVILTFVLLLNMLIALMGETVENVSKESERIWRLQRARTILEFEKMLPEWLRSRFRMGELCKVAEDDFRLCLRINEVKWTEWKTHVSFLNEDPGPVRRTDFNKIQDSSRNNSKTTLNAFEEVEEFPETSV
# From the text: As we mentioned above, HCQ may act as a pore blocker of TRPV3. To probe the binding configuration of HCQ to TRPV3, we carried out molecular docking using Rosetta suite (https://rosettacommons.org) ([21]) and validated the docking models with point mutations in TRPV3 (Fig. 4A). […] Furthermore, when we introduced L670A to L591A mutant, we also observed a left shift on the concentration–response curve on this double mutant as compared to L591A mutant (Fig. 4H).
# Figure 4 Residues of the pore domain are critical for HCQ inhibition on TRPV3.A, left panel, docking model of HCQ to the pore domain of TRPV3 structure (6uw4). Right panels, top view and side view of the HCQ-binding pocket. B-J, representative whole-cell recording of TRPV3 and mutants in response to 1 mM 2-APB, the mixture of 1 mM 2-APB and concentration gradients of HCQ with the holding potential of ± 80 mV. K, concentration–response curves of HCQ in WT TRPV3 and mutants (n = 3–5 cells). L, quantification of the inhibitory ratio of HCQ (100 μM) on WT, L591A, and N671Q. […]
# All data from whole-cell recordings were analyzed in Igor Pro (WaveMetrics). IC50 values were determined by fitting the Hill equation to concentration-response relationships. […]
compound,measurement,setting,value
"CCN(CCO)CCCC(C)Nc1ccnc2cc(Cl)ccc12 (centres unmarked) [HCQ, hydroxychloroquine]",reduction of hTRPA1 current,hTRPA1,11.37% ± 4.10%
same,IC50,[1],140 ± 10 nM
